# Experiments:
# Assay type in all cases: in vivo
# [1] = system: giant foxtail (Setaria faberii); experiment: Test A pre-/postemergence plant response; conditions: for Foxtail, Giant plant response rating: visual injury, 0 to 100 scale (0 no effect, 100 complete control), approx. ten days
# How it was run: (§1)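 Both pre- and postemergence treatments are applied simultaneously, using chemicals formulated in a non-phytotoxic solvent mixture with surfactant. Postemergence plants are 2–10 cm high with one to two leaves. After approximately ten days in a greenhouse, injury is scored visually from 0 (none) to 100 (complete control) relative to untreated plants.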
# [2] = system: corn (Zea mays); experiment: Test A pre-/postemergence plant response; conditions: for Corn plant response rating: visual injury, 0 to 100 scale (0 no effect, 100 complete control), approx. ten days
# How it was run: as §1
# [3] = system: velvetleaf (Abutilon theophrasti); experiment: Test A pre-/postemergence plant response; conditions: for Velvetleaf plant response rating: visual injury, 0 to 100 scale (0 no effect, 100 complete control), approx. ten days
# How it was run: as §1
# [4] = system: large crabgrass (Digitaria sanguinalis); experiment: Test A pre-/postemergence plant response; conditions: for Crabgrass, Large plant response rating: visual injury, 0 to 100 scale (0 no effect, 100 complete control), approx. ten days
# How it was run: as §1
# [5] = system: wheat (Triticum aestivum); experiment: Test A pre-/postemergence plant response; conditions: for Wheat plant response rating: visual injury, 0 to 100 scale (0 no effect, 100 complete control), approx. ten days
# How it was run: as §1
# [6] = system: barnyardgrass (Echinochloa crus-galli); experiment: Test A pre-/postemergence plant response; conditions: for Barnyardgrass plant response rating: visual injury, 0 to 100 scale (0 no effect, 100 complete control), approx. ten days
# How it was run: as §1
# [7] = system: pigweed (Amaranthus retroflexus); experiment: Test A pre-/postemergence plant response; conditions: for Pigweed plant response rating: visual injury, 0 to 100 scale (0 no effect, 100 complete control), approx. ten days
# How it was run: as §1
# [8] = system: morningglory (Ipomoea spp.); experiment: Test A pre-/postemergence plant response; conditions: for Morningglory plant response rating: visual injury, 0 to 100 scale (0 no effect, 100 complete control), approx. ten days
# How it was run: as §1
# [9] = system: rice (Oryza sativa); experiment: Test B flooded paddy test; conditions: for Plant response rating, Rice: Flood (flooded paddy test), 13 to 15 days; for Rice plant response rating: Flood, 31 g ai/ha, scale 0 to 100 (0 no effect, 100 complete control)
# How it was run: (§2)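 Rice, umbrella sedge, ducksalad and barnyardgrass were grown to the 2-leaf stage, flooded to 3 cm, and compound was applied directly to the paddy water, with that depth kept throughout. After 13 to 15 days in the greenhouse, plants were visually rated against controls on a 0 (no effect) to 100 (complete control) scale.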
# [10] = system: umbrella sedge (Cyperus difformis); experiment: Test B flooded paddy test; conditions: for Plant response rating, Sedge, Umbrella: Flood (flooded paddy test), 13 to 15 days; for Sedge, Umbrella plant response rating: Flood, 31 g ai/ha, scale 0 to 100 (0 no effect, 100 complete control)
# How it was run: as §2
# [11] = system: ducksalad (Heteranthera limosa); experiment: Test B flooded paddy test; conditions: for Plant response rating, Ducksalad: Flood (flooded paddy test), 13 to 15 days; for Ducksalad plant response rating: Flood, 31 g ai/ha, scale 0 to 100 (0 no effect, 100 complete control)
# How it was run: as §2
# [12] = system: barnyardgrass (Echinochloa crus-galli); experiment: Test B flooded paddy test; conditions: for Plant response rating, Barnyardgrass: Flood (flooded paddy test), 13 to 15 days; for Barnyardgrass plant response rating: Flood, 31 g ai/ha, scale 0 to 100 (0 no effect, 100 complete control)
# How it was run: as §2
# [13] = Postemergence, 125 g ai/ha, 0 to 100 scale where 0 is no effect and 100 is complete control
# [14] = Preemergence, 125 g ai/ha, 0 to 100 scale, 0 = no effect, 100 = complete control
# [15] = Preemergence, 500 g ai/ha, 0 to 100 scale, 0 = no effect, 100 = complete control
# [16] = 125 g ai/ha, scale 0 to 100, 0 is no effect, 100 is complete control
# [17] = 250 g ai/ha, flooded paddy test, visual rating on 0 to 100 scale (0 no effect, 100 complete control) after 13 to 15 days
# [18] = 62 g ai/ha, scale of 0 to 100 where 0 is no effect and 100 is complete control
smiles,measurement,setting,value
CCc1ccc(-n2c(-c3cccc(Cl)c3)ncc(C(=O)C3=C(O)CCCC3=O)c2=O)cc1 [Compound 174],"Plant response rating, Foxtail, Giant",[1]; [13],20
same,"Foxtail, Giant plant response rating","[1]; Postemergence, 500 g ai/ha",60
same,"Plant response rating, Foxtail, Giant",[1]; [14],0
same,"Plant response rating, Foxtail, Giant",[1]; [15],40
same,"Plant response rating, Corn",[2]; [13],10
same,Corn plant response rating,"[2]; Postemergence, 500 g ai/ha",20
same,"Plant response rating, Corn",[2]; [14],10
same,"Plant response rating, Corn",[2]; [15],20
same,"Plant response rating, Velvetleaf",[3]; [13],100
same,Velvetleaf plant response rating,"[3]; Postemergence, 500 g ai/ha",100
same,"Plant response rating, Velvetleaf",[3]; [14],20
same,"Plant response rating, Velvetleaf",[3]; [15],70
same,"Plant response rating, Crabgrass, Large",[4]; [13],70
same,"Crabgrass, Large plant response rating","[4]; Postemergence, 500 g ai/ha",90
same,"Plant response rating, Crabgrass, Large",[4]; [14],20
same,"Plant response rating, Crabgrass, Large",[4]; [15],60
same,"Plant response rating, Wheat",[5]; [13],0
same,Wheat plant response rating,"[5]; Postemergence, 500 g ai/ha",0
same,"Plant response rating, Wheat",[5]; [14],0
same,"Plant response rating, Wheat",[5]; [15],0
same,"Plant response rating, Barnyardgrass",[6]; [13],90
same,Barnyardgrass plant response rating,"[6]; Postemergence, 500 g ai/ha",100
same,"Plant response rating, Barnyardgrass",[6]; [14],0
same,"Plant response rating, Barnyardgrass",[6]; [15],40
same,"Plant response rating, Pigweed",[7]; [13],100
same,Pigweed plant response rating,"[7]; Postemergence, 500 g ai/ha",100
same,"Plant response rating, Pigweed",[7]; [14],30
same,"Plant response rating, Pigweed",[7]; [15],90
same,"Plant response rating, Morningglory",[8]; [13],30
same,Morningglory plant response rating,"[8]; Postemergence, 500 g ai/ha",60
same,"Plant response rating, Morningglory",[8]; [14],0
same,"Plant response rating, Morningglory",[8]; [15],0
same,"Plant response rating, Rice",[9]; [16],0
same,Rice plant response rating,[9],0
same,"Plant response rating, Sedge, Umbrella",[10]; [16],95
same,"Sedge, Umbrella plant response rating",[10],85
same,"Plant response rating, Ducksalad",[11]; [16],95
same,Ducksalad plant response rating,[11],80
same,"Plant response rating, Barnyardgrass",[12]; [16],0
same,Barnyardgrass plant response rating,[12],0
CCc1ccc(-n2c(-c3cccc(Br)c3)ncc(C(=O)C3=C(O)CCCC3=O)c2=O)cc1 [Compound 177],"Plant response rating, Foxtail, Giant",[1]; [13],0
same,"Foxtail, Giant plant response rating","[1]; Postemergence, 500 g ai/ha",40
same,"Plant response rating, Foxtail, Giant",[1]; [14],0
same,"Plant response rating, Foxtail, Giant",[1]; [15],20
same,"Plant response rating, Corn",[2]; [13],0
same,Corn plant response rating,"[2]; Postemergence, 500 g ai/ha",0
same,"Plant response rating, Corn",[2]; [14],0
same,"Plant response rating, Corn",[2]; [15],20
same,"Plant response rating, Velvetleaf",[3]; [13],90
same,Velvetleaf plant response rating,"[3]; Postemergence, 500 g ai/ha",100
same,"Plant response rating, Velvetleaf",[3]; [14],10
same,"Plant response rating, Velvetleaf",[3]; [15],40
same,"Plant response rating, Crabgrass, Large",[4]; [13],30
same,"Crabgrass, Large plant response rating","[4]; Postemergence, 500 g ai/ha",70
same,"Plant response rating, Crabgrass, Large",[4]; [14],0
same,"Plant response rating, Crabgrass, Large",[4]; [15],10
same,"Plant response rating, Wheat",[5]; [13],0
same,Wheat plant response rating,"[5]; Postemergence, 500 g ai/ha",0
same,"Plant response rating, Wheat",[5]; [14],0
same,"Plant response rating, Wheat",[5]; [15],0
same,"Plant response rating, Barnyardgrass",[6]; [13],80
same,Barnyardgrass plant response rating,"[6]; Postemergence, 500 g ai/ha",100
same,"Plant response rating, Barnyardgrass",[6]; [14],0
same,"Plant response rating, Barnyardgrass",[6]; [15],10
same,"Plant response rating, Pigweed",[7]; [13],100
same,Pigweed plant response rating,"[7]; Postemergence, 500 g ai/ha",100
same,"Plant response rating, Pigweed",[7]; [14],0
same,"Plant response rating, Pigweed",[7]; [15],50
same,"Plant response rating, Morningglory",[8]; [13],0
same,Morningglory plant response rating,"[8]; Postemergence, 500 g ai/ha",10
same,"Plant response rating, Morningglory",[8]; [14],0
same,"Plant response rating, Rice",[9]; [16],20
same,Rice plant response rating,[9],15
same,"Plant response rating, Sedge, Umbrella",[10]; [16],75
same,"Sedge, Umbrella plant response rating",[10],60
same,"Plant response rating, Ducksalad",[11]; [16],70
same,Ducksalad plant response rating,[11],30
same,"Plant response rating, Barnyardgrass",[12]; [16],15
same,Barnyardgrass plant response rating,[12],0
Cc1ccc(Cl)cc1-n1c(-c2cc(F)cc(F)c2)ncc(C(=O)C2=C(O)CCCC2=O)c1=O [Compound 179],"Plant response rating, Foxtail, Giant",[1]; [13],40
same,"Foxtail, Giant plant response rating","[1]; Postemergence, 500 g ai/ha",90
same,"Plant response rating, Foxtail, Giant",[1]; [14],10
same,"Plant response rating, Foxtail, Giant",[1]; [15],90
same,"Plant response rating, Corn",[2]; [13],10
same,Corn plant response rating,"[2]; Postemergence, 500 g ai/ha",80
same,"Plant response rating, Corn",[2]; [14],0
same,"Plant response rating, Corn",[2]; [15],0
same,"Plant response rating, Velvetleaf",[3]; [13],100
same,Velvetleaf plant response rating,"[3]; Postemergence, 500 g ai/ha",100
same,"Plant response rating, Velvetleaf",[3]; [14],50
same,"Plant response rating, Velvetleaf",[3]; [15],100
same,"Plant response rating, Crabgrass, Large",[4]; [13],60
same,"Crabgrass, Large plant response rating","[4]; Postemergence, 500 g ai/ha",100
same,"Plant response rating, Crabgrass, Large",[4]; [14],20
same,"Plant response rating, Crabgrass, Large",[4]; [15],100
same,"Plant response rating, Wheat",[5]; [13],40
same,Wheat plant response rating,"[5]; Postemergence, 500 g ai/ha",80
same,"Plant response rating, Wheat",[5]; [14],0
same,"Plant response rating, Wheat",[5]; [15],60
same,"Plant response rating, Barnyardgrass",[6]; [13],60
same,Barnyardgrass plant response rating,"[6]; Postemergence, 500 g ai/ha",90
same,"Plant response rating, Barnyardgrass",[6]; [14],0
same,"Plant response rating, Barnyardgrass",[6]; [15],70
same,"Plant response rating, Pigweed",[7]; [13],90
same,Pigweed plant response rating,"[7]; Postemergence, 500 g ai/ha",100
same,"Plant response rating, Pigweed",[7]; [14],50
same,"Plant response rating, Pigweed",[7]; [15],90
same,"Plant response rating, Morningglory",[8]; [13],60
same,Morningglory plant response rating,"[8]; Postemergence, 500 g ai/ha",100
same,"Plant response rating, Morningglory",[8]; [14],0
same,"Plant response rating, Morningglory",[8]; [15],40
same,"Plant response rating, Flood, Rice",[9]; [17],65
same,"Plant response rating, Rice",[9]; [18],0
same,"Plant response rating, Rice",[9]; [16],25
same,Rice plant response rating,[9],0
same,"Plant response rating, Flood, Sedge, Umbrella",[10]; [17],95
same,"Plant response rating, Sedge, Umbrella",[10]; [18],80
same,"Plant response rating, Sedge, Umbrella",[10]; [16],85
same,"Sedge, Umbrella plant response rating",[10],40
same,"Plant response rating, Flood, Ducksalad",[11]; [17],100
same,"Plant response rating, Ducksalad",[11]; [18],90
same,"Plant response rating, Ducksalad",[11]; [16],95
same,Ducksalad plant response rating,[11],90
same,"Plant response rating, Flood, Barnyardgrass",[12]; [17],30
same,"Plant response rating, Barnyardgrass",[12]; [18],10
same,"Plant response rating, Barnyardgrass",[12]; [16],20
same,Barnyardgrass plant response rating,[12],0

# From US8952024B2, “Herbicidal pyrimidone derivatives” (E I du Pont de Nemours and Company, priority 2009, dated 2015)
